Data from a melting point compilation (Tetko et al.; mined from patent text by program, amines drawn as free bases though some values may be those of a salt).

melting point [°C] | Structure (SMILES)
172 to 173 | COc1ccccc1C1(N[C@H](CO)c2ccccc2)C(=O)Nc2ccc(Cl)cc21 (some centres not stated)
278 to 280 | CC(C)(C)c1ccc(C(=O)Nc2cn3cc(-c4cn[nH]c4)ccc3n2)cc1
258 to 261 | Cc1c(C)c2c(c(C)c1NC(=O)c1ccc(C(=O)O)cc1)C(c1ccc(C(C)C)cc1)C(C)(C)O2 (configuration not stated)
269 to 270 | COc1cc2nc(N3CCN(c4ccc(Cl)nn4)CC3)nc(N)c2cc1OC
185 to 189 | Cc1ccc(-c2cccc(OC3SCC(O)C(O)C3O)c2)nc1 (configuration not stated)
159 to 161 | COCOc1ccccc1COc1cc2c(cc1-c1cc(C=CC(=O)O)ccc1OC)C(C)(C)CCC2(C)C
96.5 to 98.5 | CCNc1ccc(-c2nnsc2-c2ccc(NCC)cc2)cc1
68 to 70 | CC1=C(C=O)COc2ccccc21
147 | COc1ccc2cccc3c2c1C(CC(=O)O)CC3 (configuration not stated)
220 to 222 | CCC1C(=O)c2c(cc(O)c(Cl)c2Cl)C1c1ccccc1 (configuration not stated)
130 to 132 | C#Cc1cccc(-c2cccc([N+](=O)[O-])c2-c2cc(C#C)ccn2)c1
175 to 176 | COC(=O)C1CCc2c([nH]c3ccc(Cl)cc23)C1 (configuration not stated)
303 to 304 | O=C(O)c1cccc(-c2ccc3[nH]cc(-c4ccc(Cl)cc4Cl)c3c2)c1
250 to 251 | O=C1c2ccccc2N(N2CCOCC2)C2=NCCN12
145 to 148 | C=CCn1c(=O)c(C(=O)O)c(NC(=O)CCl)c2cccnc21
150 to 151 | N[C@@H](CN1CCC(=C2c3ccccc3CCc3ccccc32)CC1)C(=O)O
> 300 | N#CC(C#N)=C1Sc2nc3ccc(Cl)cc3nc2S1
210 to 212 | CCOc1cccc(C(CO)n2nc(C(=O)O)c3c2-c2ccc(OCc4cncnc4)cc2CC3)c1 (configuration not stated)
78 | COc1ccc(Cc2cc(S)ccc2OC)cc1
152 to 154 | N#Cc1ccc(C(=O)n2ccnc2)cc1
150 to 152 | O=C(NCCSCCNC(=O)c1cccc(Cl)c1)c1cccc(Cl)c1
190 to 191 | CCCN1N=C2C(=Cc3cccc(C(F)(F)F)c3)CS(=O)(=O)CC2C1c1cccc(C(F)(F)F)c1 (configuration not stated)
95 to 97 | CCN[C@H]1CCC[C@H](Oc2ccc3[nH]ncc3c2C)C1 (relative stereo)

melting point [°C] | Structure (SMILES)
110 to 112 | CC(C)N(C(=O)CNc1ccccc1N)c1ccccc1
146 to 147 | O=C(O)CCC(=O)Cc1ccc2c(c1)Cc1cccnc1O2
132 to 137 | N#Cc1c(C(=O)O)nn(-c2ccc(Cl)cc2Cl)c1-c1ccc(Cl)cc1
211 | Oc1c(-c2cccnc2)cccc1-c1cccnc1
118 to 122 | CS(=O)(=O)NCCS(=O)(=O)N1CCN(S(=O)(=O)c2ccc(-c3ccc(Cl)cc3)s2)[C@@H](C(=O)NO)C1
148 to 149 | C[C@@H]1OC(=O)[C@H]2[C@H]3O[C@H]([C@H]4CCCC[C@H]43)[C@@H]21
236 | CN1CCN(C(=O)CCC(=O)c2ccc3[nH]c4nc(Cl)ccc4c3c2)CC1
209 to 211 | Cc1cc(Cc2cnc(Cl)nc2Cl)c2cccnc2c1N
48 to 49 | CC(C)C[C@H](NC(=O)OCc1ccccc1)C(=O)N[C@H]1CCOC1O (some centres not stated)
198 | CCCCn1c(=O)n2cnnc2c2[nH]c(-c3cc(S(=O)(=O)N4CC(CN(C)C)C4)ccc3OCCC)nc21
103 to 107 | Nc1cccc(OCc2ncc3ccccc3n2)c1
104 to 106 | CC(=O)Oc1ccc(C2CCC(=O)CC2)cc1
52 to 54 | c1ccc(NCCCCCCCNc2ccccc2)cc1
260 to 261 | CS(=O)C1=NS(=O)(=O)c2cc(Cl)ccc2N1 (configuration not stated)
158 to 159 | COc1nc(N)nc(C2CC2)n1
94 to 96 | CCCCCC(COc1ccc(C(=O)O)cc1)c1ccc2c(c1)C(C)(C)CC(C)(C)O2 (racemic)
66 to 67 | Cc1cc(N(C)C)ccc1C=O
162 to 165 | Cc1cc(O)c(Oc2ccccc2C#N)cc1N1CCOCC1
287 to 290 | CC1(C)CNC(=O)c2c1ccc1nc(Nc3c(Cl)cccc3Cl)[nH]c21
109 to 112 | CCOc1ccc(C2=NN(C3CCN(C(=O)Nc4ccccc4)CC3)C(=O)[C@@H]3CC=CC[C@H]23)cc1OCC
73 to 74 | CCNC(=O)OCCOc1ccc(Oc2cccc(Cl)c2)cc1Cl
97 | Fc1cccc2c(CCCc3ccc(Cl)cc3)ccnc12
134 to 136 | C[C@H](Nc1nc(C#N)nc(Cl)c1-c1c(F)cc(F)cc1F)C(F)(F)F

melting point [°C] | Structure (SMILES)
217 to 219 | CC[C@@H]1CN(c2c(F)c(N)c3c(=O)c(C(=O)O)cn(C4CC4)c3c2OC)CC[C@H]1O (relative stereo)
148 to 149 | CN1CCCC1=NC(=O)Nc1cccc2ccccc12
194 to 195 | Cn1cc(-c2cccc(C(F)(F)F)c2)c(=O)c(C2CC=CCC2)c1 (configuration not stated)
289 to 290 | O=C(Oc1ccccc1)c1cc2ccc3c4cc(F)ccc4[nH]c3c2cc1O
124 to 125 | CCOc1nn(Cc2ccc(OCc3cccnc3)c(OC)c2)cc1CCC(=O)O
103 to 104 | CC(C#N)(COc1ccc(Cl)cc1Cc1ccccc1)NC(=O)c1ccc(OC(F)(F)F)cc1 (configuration not stated)
147 | Cc1nc(CS(C)(=O)=O)nc(OC(=O)NN2CCOCC2)c1C
219 to 220 | Cc1ccc(S(=O)(=O)Nc2cc3c(c(C(=O)O)c2)NC(c2ccccc2)CC3)cc1 (configuration not stated)
213 | CCCOc1ccccc1-c1[nH]c(=O)c(C#N)cc1C
50 to 53 | O=[N+]([O-])c1cc(Cl)c(Br)cc1Cl
52 | CCCCCCc1ccc(/C(Cl)=C/c2ccc(Br)cc2)cc1
248 | N#Cc1c(N2CCN(C(=O)c3ccco3)CC2)c2cc(F)ccc2n(Cc2ccc(F)cc2)c1=O
132 to 134 | Cc1cccc2[nH]c3c(c12)CCOC3(C)CC(=O)O (configuration not stated)
292 | COc1cc(OC)c(S(C)(=O)=O)cc1C(=O)O
204 to 205 | Cc1cc(O)c(C(C)(C)C)cc1SC(Sc1cc(C(C)(C)C)c(O)cc1C)Sc1cc(C(C)(C)C)c(O)cc1C
258 to 259 | CCCn1c(=O)c2[nH]c(/C=C/c3ccco3)nc2n(CCC)c1=O
> 300 | O=C(O)C1=Cc2cc(Cl)c(Oc3ccc(C(=O)O)cc3)cc2OC1C(F)(F)F (configuration not stated)
116 to 118 | COC(=O)c1nc(N(C)C2CCCCC2)ccc1Oc1nc(OC)cc(OC)n1
68 | CC1=CC(COC(c2ccccc2)(c2ccccc2)c2ccccc2)O[C@@H]1c1coc(C#N)c1N (some centres not stated)
149 to 153 | CC(=O)OCC1CC(=O)NN=C1c1ccc2c(c1)CCC(=O)N2C (configuration not stated)
117 to 118 | COc1ccc(C=Cc2nnc(C(F)(F)F)o2)cc1
209 to 211 | C=Cc1c(N)cc(-c2ccc(Cl)c(OC)c2F)nc1C(=O)O

Structure (SMILES) | melting point [°C]
CC(=O)n1nc(N2CCN(C)CC2)c2ccccc21 | 106 to 108
CC1C(c2ccccc2)OP(N)(=O)N1C (configuration not stated) | 170 to 172
CC(=NO)c1nn(C)c2cc(OCC3CC3(Cl)Cl)c(F)cc12 (configuration not stated) | 150 to 152
CC(=O)NC(=S)NCCC1CC2c3cccc4[nH]cc(c34)CC2N(C)C1 (configuration not stated) | 213 to 215
